This note sets out measurements from US20230027985A1, “SUBSTITUTED HYDANTOINAMIDES AS ADAMTS7 ANTAGONISTS” (Bayer Aktiengesellschaft, priority 2019, published 2023).

Where only a bound is given, the exact number is not on record here.

Assay [1] concerns the target T1, ADAMTS4 (Homo sapiens, UniProt O75173).
T1 construct: purchased R&D 4307-AD
T1 sequence (O75173 213-685 limits assumed): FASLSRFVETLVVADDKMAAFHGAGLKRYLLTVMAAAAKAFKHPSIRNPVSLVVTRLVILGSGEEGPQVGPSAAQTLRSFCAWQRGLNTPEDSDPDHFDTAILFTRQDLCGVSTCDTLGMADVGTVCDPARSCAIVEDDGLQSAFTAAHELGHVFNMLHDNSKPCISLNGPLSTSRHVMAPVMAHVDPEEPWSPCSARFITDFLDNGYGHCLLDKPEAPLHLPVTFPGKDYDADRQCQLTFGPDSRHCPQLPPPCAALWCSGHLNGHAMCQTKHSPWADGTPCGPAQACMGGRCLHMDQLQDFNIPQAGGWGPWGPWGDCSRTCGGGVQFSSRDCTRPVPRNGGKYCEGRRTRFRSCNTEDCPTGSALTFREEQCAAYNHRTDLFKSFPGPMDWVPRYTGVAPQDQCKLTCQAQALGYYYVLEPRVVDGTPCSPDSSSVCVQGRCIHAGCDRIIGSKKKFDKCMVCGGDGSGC
The experiment in a line: Selectivity assay for ADAMTS-7 modulators (FRET), ADAMTS4. The assay is classed as biochemical. The following applies: 50 nM enzyme (R&D 4307-AD), 1 μM Dabcyl/Edans FRET substrate, 120 min at 32° C. In a few lines:
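Enzyme in 50 mM Tris pH 7.5, 150 mM NaCl, 10 mM CaCl2, 0.05% Brij, preincubated with compound in DMSO; reaction started with FRET substrate. Fluorescence increase read after 120 min at 32° C; IC50 from percent inhibition versus compound concentration.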

Assay [2] concerns the target T2, Purified recombinant ADAMTS-7 (rat prodomain/human catalytic domain, SEQ ID No. 01 or 02) (Homo sapiens, UniProt Q9UKP4).
T2 construct: rat ADAMTS-7 signal peptide + prodomain (rat 1-217, Q1EHB3) (N); 2xStrep tag (C); 6xHis tag (C); made in house; host or cells: Expi293 cells
T2 sequence (Q9UKP4 237-537): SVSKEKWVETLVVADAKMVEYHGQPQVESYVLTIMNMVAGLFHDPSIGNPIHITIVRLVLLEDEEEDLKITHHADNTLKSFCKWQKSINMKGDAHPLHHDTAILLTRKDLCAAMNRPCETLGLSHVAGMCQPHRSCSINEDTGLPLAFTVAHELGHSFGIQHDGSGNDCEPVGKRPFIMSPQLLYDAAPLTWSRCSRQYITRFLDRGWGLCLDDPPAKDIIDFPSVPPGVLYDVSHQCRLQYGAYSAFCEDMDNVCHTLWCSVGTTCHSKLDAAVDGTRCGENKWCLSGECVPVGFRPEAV
The experiment in a line: Assay for ADAMTS-7 enzymatic activity (FRET substrate cleavage). The assay is classed as biochemical. The following applies: FRET substrate SEQ ID No. 11, 120 min at 32° C.; read-out: ADAMTS7-IC50. In a few lines: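 About 20 nM enzyme in 20 mM HEPES pH 8.0, 150 mM NaCl, 5 mM CaCl2, 0.004% Brij and 10 μM ZnCl2 was mixed with compound in DMSO and a QXL520-quenched FRET peptide from thrombospondin-1 (275-289). After 120 min at 32 °C, fluorescence was read at 485/520 nm. IC50 came from percent inhibition versus concentration.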

As for `Cn1ccnc1C1(CNC(=O)c2cnn(-c3ccc(F)cc3)n2)NC(=O)NC1=O` (racemic) [Example 141, rac-2-(4-fluorophenyl)-N-{[4-(1-methyl-1H-imidazol-2-yl)-2,5-dioxoimidazolidin-4-yl]methyl}-2H-1,2,3-triazole-4-carboxamide], the 50% inhibitory concentration (IC50) (in general, the concentration that gives 50% inhibition) is 320 nM in assay [1] and 4 nM in assay [2].

On to `Cn1ccnc1C1(CNC(=O)c2cnn(-c3cc(F)c(F)c(F)c3)n2)NC(=O)NC1=O` (racemic) [Example 143, rac-N-{[4-(1-methyl-1H-imidazol-2-yl)-2,5-dioxoimidazolidin-4-yl]methyl}-2-(3,4,5-trifluorophenyl)-2H-1,2,3-triazole-4-carboxamide], for which the half-maximal inhibitory concentration (IC50) in assay [1] was determined as 200 nM; in assay [2], 5 nM.

As to `CC1(C)CC1C1(CNC(=O)c2cnn(-c3ccccc3)n2)NC(=O)NC1=O` (racemic) [Example 150, ent-N-({4-[rac-2,2-dimethylcyclopropyl]-2,5-dioxoimidazolidin-4-yl}methyl)-2-phenyl-2H-1,2,3-triazole-4-carboxamide], the results for the IC50 in assay [1] and in assay [2] were 2000 nM and 38 nM, respectively.

As to `CC1(CNC(=O)c2cnn(-c3ccc(F)cc3)n2)NC(=O)NC1=O` (racemic) [Example 152, rac-2-(4-fluorophenyl)-N-[(4-methyl-2,5-dioxoimidazolidin-4-yl)methyl]-2H-1,2,3-triazole-4-carboxamide], the figures for the 50% inhibitory concentration (IC50) in assay [1] and in assay [2] were 5000 nM and 560 nM, respectively.

Take `O=C1NC(=O)C(CNC(=O)c2cnn(-c3ccc(F)cc3)n2)(C2(F)CC2)N1` (racemic) [Example 154, rac-N-{[4-(1-fluorocyclopropyl)-2,5-dioxoimidazolidin-4-yl]methyl}-2-(4-fluorophenyl)-2H-1,2,3-triazole-4-carboxamide]: the figures for the IC50 in assay [1] and in assay [2] were 7900 nM and 190 nM, respectively.

As for `O=C1NC(=O)C(CNC(=O)c2cnn(-c3ccc(F)cc3)n2)(C2CC(F)(F)C2)N1` (racemic) [Example 155, rac-N-{[4-(3,3-difluorocyclobutyl)-2,5-dioxoimidazolidin-4-yl]methyl}-2-(4-fluorophenyl)-2H-1,2,3-triazole-4-carboxamide], the IC50 in assay [1] was more than 50000 nM; in assay [2], 220 nM.

As to `O=C1NC(=O)C(CNC(=O)c2cnn(-c3ccc(F)cc3)n2)(c2ncccc2C(F)(F)F)N1` (racemic) [Example 156, rac-N-({2,5-dioxo-4-[3-(trifluoromethyl)pyridin-2-yl]imidazolidin-4-yl}methyl)-2-(4-fluorophenyl)-2H-1,2,3-triazole-4-carboxamide], the IC50 stood at 15000 nM in assay [1] and 59 nM in assay [2].

In the case of `Cc1nc(C2(CNC(=O)c3cnn(-c4ccc(F)cc4)n3)NC(=O)NC2=O)c(C)s1` (racemic) [Example 158, rac-N-{[4-(2,5-dimethyl-1,3-thiazol-4-yl)-2,5-dioxoimidazolidin-4-yl]methyl}-2-(4-fluorophenyl)-2H-1,2,3-triazole-4-carboxamide], the values for the IC50 in assay [1] and in assay [2] were 2800 nM and 100 nM, respectively.

As for `O=C1NC(=O)C(CNC(=O)c2cnn(-c3ccc(F)cc3)n2)(C2(Cl)CC2)N1` (racemic) [Example 159, rac-N-{[4-(1-chlorocyclopropyl)-2,5-dioxoimidazolidin-4-yl]methyl}-2-(4-fluorophenyl)-2H-1,2,3-triazole-4-carboxamide], the half-maximal inhibitory concentration (IC50) in assay [1] was determined as 3700 nM; in assay [2], 74 nM.

On to `CCC1(CNC(=O)c2cnn(-c3ccc(F)cc3)n2)NC(=O)NC1=O` (racemic) [Example 162, rac-N-[(4-ethyl-2,5-dioxoimidazolidin-4-yl)methyl]-2-(4-fluorophenyl)-2H-1,2,3-triazole-4-carboxamide], for which the 50% inhibitory concentration (IC50) was found to be 13000 nM in assay [1] and 200 nM in assay [2].

On to `O=C1NC(=O)C(CNC(=O)c2cnn(-c3ccc(F)cc3)n2)(c2ccccn2)N1` (single isomer, unassigned) [Example 97, ent-N-{[2,5-dioxo-4-(pyridin-2-yl)imidazolidin-4-yl]methyl}-2-(4-fluorophenyl)-2H-1,2,3-triazole-4-carboxamide], for which the values for the IC50 in assay [1] and in assay [2] were 1900 nM and 10 nM, respectively.

For `CCC(C)C1(CNC(=O)c2cnn(-c3ccc(F)cc3)n2)NC(=O)NC1=O` (single isomer, unassigned) [Example 104, ent-N-[(4-sec-butyl-2,5-dioxoimidazolidin-4-yl)methyl]-2-(4-fluorophenyl)-2H-1,2,3-triazole-4-carboxamide], the results for the IC50 in assay [1] and in assay [2] were 2200 nM and 10 nM, respectively.

For `CCC(C)C1(CNC(=O)c2cnn(-c3ccc(F)cc3)n2)NC(=O)NC1=O` (single isomer, unassigned) [Example 137, ent-N-[(4-sec-butyl-2,5-dioxoimidazolidin-4-yl)methyl]-2-(4-fluorophenyl)-2H-1,2,3-triazole-4-carboxamide], the IC50 in assay [1] amounted to 1000 nM; in assay [2], 37 nM.

For `O=C1NC(=O)C(CNC(=O)c2cnn(-c3ccccc3)n2)(C2CCCOC2)N1` (single isomer, unassigned; dia1) [Example 84, dia1-N-{[4-(-oxan-3-yl)-2,5-dioxoimidazolidin-4-yl]methyl}-2-phenyl-2H-1,2,3-triazole-4-carboxamide], the IC50 in assay [1] is 4000 nM; in assay [2] it was 150 nM.

For the molecule `O=C1NC(=O)C(CNC(=O)c2cnn(-c3ccccc3)n2)(C2CCCOC2)N1` (single isomer, unassigned; dia2) [Example 85, dia2-N-{[4-(-oxan-3-yl)-2,5-dioxoimidazolidin-4-yl]methyl}-2-phenyl-2H-1,2,3-triazole-4-carboxamide], the concentration for half-maximal inhibition (IC50) in assay [1] worked out at 6500 nM; in assay [2] it was 250 nM.

As for `O=C1NC(=O)C(CNC(=O)c2cnn(-c3ccc(F)cc3)n2)(C2CCOCC2)N1` (single isomer, unassigned; ent-2) [Example 81], the IC50 in assay [1] turned out to be 1500 nM; in assay [2] it was 37 nM.

For `CC(C)C1(CNC(=O)c2cnn(-c3ccc(F)cc3F)n2)NC(=O)NC1=O` (single isomer, unassigned; ent-2) [Example 88, ent-2-(2,4-difluorophenyl)-N-[(4-isopropyl-2,5-dioxoimidazolidin-4-yl)methyl]-2H-1,2,3-triazole-4-carboxamide], the IC50 worked out at 13000 nM in assay [1] and 98 nM in assay [2].

Turning to `O=C1NC(=O)C(CNC(=O)c2cnn(-c3ccc(F)c(Cl)c3)n2)(C2CCC2)N1` (single isomer, unassigned; ent-2) [Example 91, ent-2-(3-chloro-4-fluorophenyl)-N-[(4-cyclobutyl-2,5-dioxoimidazolidin-4-yl)methyl]-2H-1,2,3-triazole-4-carboxamide], the concentration for half-maximal inhibition (IC50) was found to be 1800 nM in assay [1] and 18 nM in assay [2].

Take `N#Cc1cccc(-n2ncc(C(=O)NCC3(C4CCC4)NC(=O)NC3=O)n2)c1` (single isomer, unassigned; ent-2) [Example 92, ent-2-(3-cyanophenyl)-N-[(4-cyclobutyl-2,5-dioxoimidazolidin-4-yl)methyl]-2H-1,2,3-triazole-4-carboxamide]: the IC50 was found to be 4000 nM in assay [1] and 78 nM in assay [2].

In the case of `O=C1NC(=O)C(CNC(=O)c2cnn(-c3ccc(Cl)cc3)n2)(C2CCC2)N1` (single isomer, unassigned; ent-2) [Example 95, ent-2-(4-chlorophenyl)-N-[(4-cyclobutyl-2,5-dioxoimidazolidin-4-yl)methyl]-2H-1,2,3-triazole-4-carboxamide], the IC50 in assay [1] stood at 980 nM; in assay [2], 10 nM.

With `O=C1NC(=O)C(CNC(=O)c2cnn(-c3cccc(Cl)c3)n2)(C2CCC2)N1` (single isomer, unassigned; ent-2) [Example 96, ent-2-(3-chlorophenyl)-N-[(4-cyclobutyl-2,5-dioxoimidazolidin-4-yl)methyl]-2H-1,2,3-triazole-4-carboxamide], the figures for the concentration for half-maximal inhibition (IC50) in assay [1] and in assay [2] were 2200 nM and 48 nM, respectively.

Turning to `Cc1scnc1C1(CNC(=O)c2cnn(-c3ccc(F)cc3)n2)NC(=O)NC1=O` (single isomer, unassigned; ent-2) [Example 103], the figures for the half-inhibitory concentration (IC50) in assay [1] and in assay [2] were 200 nM and 2 nM, respectively.
